Earlier results, collected in patent publication US12594250B2, “Prevention of accumulated tolerance to stimulant medication for the treatment of ADHD” (priority 2021, dated 2026).
Where two headings read alike, the source gives them in different places.

Legend:
children with ADHD [1] = conditions: for duration of effect / action / efficacy: after one administration
[2] = oral administration; for time to maximum serum concentration (C-max): immediate-release bolus
children with ADHD [3] = test system: children with ADHD
DA Transporter (DAT) = molecular target: T1, DA Transporter (DAT) (Homo sapiens, UniProt Q01959); conditions: adults with ADHD, a year of consistent medication use
T1 construct: dopamine transporter density was increased in specific dopamine regions of the brain; host or cells: living brain (caudate nucleus, nucleus accumbens) of adults with ADHD; endogenous protein
T1 sequence (Q01959 whole entry): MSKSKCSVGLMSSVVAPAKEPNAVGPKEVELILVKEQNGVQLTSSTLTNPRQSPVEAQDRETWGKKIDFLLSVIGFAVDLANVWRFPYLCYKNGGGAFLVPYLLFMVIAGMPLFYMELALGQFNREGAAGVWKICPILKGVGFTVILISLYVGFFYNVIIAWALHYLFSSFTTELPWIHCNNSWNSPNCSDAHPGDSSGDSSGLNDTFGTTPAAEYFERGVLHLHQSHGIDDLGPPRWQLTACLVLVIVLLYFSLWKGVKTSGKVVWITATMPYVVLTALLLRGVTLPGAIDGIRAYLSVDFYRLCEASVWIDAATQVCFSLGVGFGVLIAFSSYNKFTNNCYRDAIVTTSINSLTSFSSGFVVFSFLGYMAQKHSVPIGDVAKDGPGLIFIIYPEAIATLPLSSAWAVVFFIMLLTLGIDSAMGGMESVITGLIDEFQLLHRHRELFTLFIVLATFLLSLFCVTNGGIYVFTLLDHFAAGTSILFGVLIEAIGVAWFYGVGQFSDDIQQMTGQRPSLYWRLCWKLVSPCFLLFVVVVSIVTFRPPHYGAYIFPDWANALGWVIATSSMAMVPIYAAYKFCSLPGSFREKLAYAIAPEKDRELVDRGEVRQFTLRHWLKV

ADHD = conditions: high dose of IR formulation

Which “duration of effect / action / efficacy” value (children with ADHD [1]) does the source give for NC1=NC(=O)C(c2ccccc2)O1 (centres unmarked) [Cylert, pemoline] here?
The value was 6 h.

For CC(N)Cc1ccccc1 (centres unmarked) [amphetamine], which “duration of constant effect” value (children with ADHD [1]; twice-a-day (BID) dosing of immediate-release) is on record?
The value was 10 to 12 h.

What about the “time to maximum serum concentration (C-max)” value [2] of the same compound?
The value was “about 2 hours”.

What does the source list for COC(=O)C(c1ccccc1)C1CCCCN1 (centres unmarked) [methylphenidate]?
duration of effect / action / efficacy (children with ADHD [1]; listed as Ritalin): 3 h; onset of clinical effect (reduction in symptoms) (children with ADHD [1]; after oral administration): within an hour; effect (PD response) across the day (children with ADHD [3]; ascending PK profile): increasing effect; effect (PD response) across the day (children with ADHD [3]; flat PK profile): decreasing effect; DAT density (DA Transporter (DAT)): increases DAT density; time to maximum serum concentration (C-max) [2]: about 1 hours; half-life (T-½) ([2]; serum concentration): 2 to 3 h

Which serious side effects (ADHD) does the source give for NC(=O)C[S+]([O-])C(c1ccccc1)c1ccccc1 (centres unmarked) [modafinil] here?
The serious side effects was “a few cases were suspected of serious dermatologic side effects”.
